According to US20230064978A1, “CYCLIC PEPTIDE RECEPTOR LANTHIONINE SYNTHETASE C-LIKE PROTEIN (LANCL) AND USES THEREOF” (LATERAL IP PTY LTD, priority 2019, published 2023):
Each block holds one compound with its values, some of them ahead of it. Bridges are numbered along the chain shown (N, C = ends). Where no end group is shown, it is not given here.

Tests used:
A549 cells = assay: Confocal imaging of LAT9991F-PAL binding and LANCL1 co-localization, with siRNA knockdown and competitors, in A549 cells; format: cell-based; details: for Competition of LAT9991F-PAL binding by excess competitor: competitor 25 μM
Description: (§1) A photoactivatable analog of LAT8881 (LAT9991F (SEQ ID NO:13)-PAL), was used to conduct the experiments. A549 or NCI-H358 cells were treated with LAT9991F-PAL at 2.5 μM during 30 minutes. Fluorescent signal was recorded after that LAT9991F-PAL was immobilized on its target(s) site by UV-crosslinking and the LAT9991F-PAL-target complexes were labeled with the green-fluorescent Alexa Fluor 488 alkyne dye by click-chemistry. Control cells were treated with the vehicle, dimethyl sulfoxide (DMSO), and with LAT9991F-PAL in combination with a large excess of the parent drug LAT8881 or other competitors, GSH, NSC61610 or ABA to evaluate, respectively, the non-specific fluorescent background and the specificity of the staining. For colocalization experiments, subsequently, immunofluorescence staining with an anti-LANCL1 or LANCL2 antibodies and an Alexa 568 (red) conjugated secondary antibody was performed. Images stacks of cells labeled with probes were collected and evaluated for the degree of colocalization of LAT9991F-PAL-target complexes and LANCL1 or LANCL2 using either the Measure Colocalization plugin in Metamorph or the JACoP plugin in ImageJ).
(§2) A549 or NCI-H358 cells (ATCC CCL-185 and ATCC CRL-5807, respectively) were cultured in appropriate medium containing 10% heat-inactivated FBS (Dutscher, #SV30160-036), 1% penicillin/streptomycin (Gibco, #15140-122) and maintained in a humidified 37° C. incubator with 5% CO2.
(§3) LAT9991F-PAL was dissolved in DMSO to make a 10 mM stock solution. Intermediate solutions at 25 μM and 2.5 μM were made in the culture medium from the 10 mM stock solutions of LAT8881 and LAT9991F-PAL, respectively. A two-fold dilution into PBS of each intermediate solution was used for cell treatment. A stock solution at 10 mM was prepared for the other competitors as GSH, NSC61610 and ABA. A final concentration at 25 μM was used for the assay.
(§4) A549 or NCI-H358 cells were seeded onto ibidiTreat Polymer Coverslips (Ibidi, #80826) at 2.5×10^5 cells/cm^2 in 200 μl of complete medium. After 24 hours, the medium was removed and cells were washed with PBS (Gibco, #10010049) and then pre-treated with the Taxol at 1 μM for 3 hours or with H2O2 25 μM for 2 hours. Cells were washed twice with PBS. Induced stress cells or control cells were then exposed to LAT9991F-PAL (2.5 μM) in PBS for 30 minutes, in the presence or absence of LAT8881 (25 μM), or the other compounds used as a competitor, and pre-incubated 10 minutes. After treatment, cells were washed with cold PBS and UV-irradiated (365 nm) in PBS for 20 min. After fixation with 4% paraformaldehyde and permeabilization (0.5% Triton/PBS) (Image-iT™ Fixation/Permeabilization Kit, ThermoFisher, #R37602), the bioorthogonal reaction with Alexa Fluor 488 Alkyne (1 μM) (ThermoFisher, #A10267) was performed at 25° C. using the Click-iT™ Cell Reaction Buffer Kit (ThermoFisher, #C10269) according to the manufacturer protocol. After click reaction, cells were washed twice with PBS, blocked with 3% BSA in PBS for 1 hour and stained with Hoechst 33342 dye (ThermoFisher, #H1399).
(§5) For colocalization experiments, cells were further incubated overnight at 4° C. with a mouse anti-LanCL1 antibody (Invitrogen, PAS-57-107) (dilution 1:1000) or LanCL2 (Atlas Antibodies HPA019711) (dilution 1:1000) in 3% BSA in PBS, washed twice with PBS, and then incubated respectively with a goat anti-mouse […] (Molecular Probes, #A21467) (dilution 1:800) for 1 h in 3% BSA in PBS. After three further washing steps with PBS, cells were embedded in Ibidi Mounting Medium (ibidi, #50001). The specimens were kept at 4° C. in the dark until analysis.
Images were acquired on an Axiovert200M (Zeiss) microscope using a CSU-W1 Yokogawa confocal unit. This microscope is equipped with a plan Apochromat X40 dry objective numerical aperture (NA) 0.95 and a Neofluar X100 oil immersion objective NA 1.45. Images were capture with an EMCCD camera (Prior, ProEM 1024×1024).

NCI-H358 cells = assay: Confocal imaging of LAT9991F-PAL binding and LANCL1 co-localization, with siRNA knockdown and competitors, in NCI-H358 cells; format: cell-based; details: for Competition of LAT9991F-PAL binding by excess competitor: competitor 25 μM
Description: as §1, §2, §3
ibidiTreat Polymer Coverslips (Ibidi, #80826) were coated with serum during 1 hour at 37° C., followed by Laminin (100 μg\ml) (incubation for 1 hour at 37° C.) for NCI-H358 cells.
as §4, §5
Images were acquired on an Axiovert200M (Zeiss) microscope using a CSU-W1 Yokogawa confocal unit.

human recombinant LANCL1 = target: T1, human recombinant LANCL1 (Homo sapiens, UniProt O43813); assay: In-gel fluorescence: photolabelling of recombinant LANCL1 with PAL probes, with or without excess competitor; format: binding; details: for Inhibition of LAT9991-PAL binding to recombinant LANCL1 by excess competitor: probe LAT9991-PAL, excess unlabelled competitor
T1 construct: purchased ABCAM ab181923; host or cells: E. coli
Description: The in-gel fluorescence protocol can be briefly described as follows:
1. LANCL1 Labelling, Assay on 96 Well Plate, Volume of the Reaction 40 μl in PBS
3 μg/well of human recombinant LANCL1 (ABCAM catalog no. ab181923, 1 mg/ml; expressed in E. Coli and incorporating an N-terminal 23 amino acid hexaHis tag; UniProtKB/Swiss-Prot Accession no: O43813);
• Vehicle DMSO • ±LAT8881 (a cyclic peptide fragment of human growth hormone; SEQ ID NO:1) • SEQ ID NO:1) as competitor @ 25, 50, 100 or 200 μM, pre-incubation 10 min, 4 μl of a stock solution 10-fold concentrated • ±LAT9991-PAL, LAT7771-PAL or LAT9993-PAL probes @ 1 μM, incubation 30 min at room temperature on a plate agitator (protected from light), 4 μl of a stock solution @10 μM
• Irradiation @ 365 nm 20 min (4° C., on a support containing ice) Transfer 40 μl in a clean Eppendorf tube
• Reduction: DTT 10 mM, 30 min @ 56° C. • Alkylation: Iodoacetamide 30 mM, 45 min @ RT Click-iT AzideTamra of 60 μL samples
• Acetone Precipitation −20° C. ON • Dry pellet resuspended in 30 μL 1% SDS in 50 mM Tris-HCl pH 7.5 • Photolabeled LANCL1 was tagged with tetramethylrhodamine (TAMRA) azide @100 μM TAMRA azide by copper click chemistry using the Click-iT Protein Reaction Buffer Kit (ThermoFisher Scientific) during 30 minutes • Precipitation using the chloroform-methanol method, pellet was air-dried for 10 min at room temperature, resuspended in 30 μL SDS loading buffer (Bio Rad's XT Sample Buffer containing 2.5% v/v 2-mercaptoethanol) and heated (60° C., 30 min)
• SDS-PAGE (4-15% Criterion™ TGX Stain-Free™ Protein Gel, Bio Rad) • Analyzed by in-gel fluorescence scanning using a ChemiDoc™ MP Imaging System (Bio Rad) with a green LED light as an excitation source and a BP600/20 nm emission filter

[1] = tested on: tissue homogenates of nerve from neuropathic animals; assay: PAL cross-linking to nerve tissue homogenates and gel separation; format: binding
Text: Using a ligand driven approach, the present inventors utilized the photo-activatable cross-linking PAL from Evotec A.G. (Photo-Activated Labelling) technology that derivatizes the active cyclic peptides to allow UV-induced cross-linking to binding targets (described herein as peptide/SEQ ID NO:X-PAL). This allows subsequent detection in cells, gels of tissue isolates or in pull-down of the peptide/target complex for sequencing by mass spectroscopy (PALMS).
LAT9991-PAL was cross-linked to tissue homogenates of nerve from neuropathic animals.

T1 sequence (O43813 with tags, fused parts or gaps): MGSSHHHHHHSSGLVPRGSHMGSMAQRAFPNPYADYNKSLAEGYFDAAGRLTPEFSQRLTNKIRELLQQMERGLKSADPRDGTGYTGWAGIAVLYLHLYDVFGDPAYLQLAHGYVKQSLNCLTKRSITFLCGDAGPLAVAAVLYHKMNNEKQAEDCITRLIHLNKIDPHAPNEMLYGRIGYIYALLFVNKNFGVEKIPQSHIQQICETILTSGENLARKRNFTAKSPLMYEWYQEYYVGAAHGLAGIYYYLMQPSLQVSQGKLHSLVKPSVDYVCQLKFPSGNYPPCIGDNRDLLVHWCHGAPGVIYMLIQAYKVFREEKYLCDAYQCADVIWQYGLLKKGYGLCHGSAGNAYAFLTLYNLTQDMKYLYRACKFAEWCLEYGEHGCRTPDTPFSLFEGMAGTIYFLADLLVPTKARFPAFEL

Compound: O=C(Nc1cccc(-c2nc3ccccc3[nH]2)c1)c1ccc(C(=O)Nc2cccc(-c3nc4ccccc4[nH]3)c2)cc1 [NSC61610, reference compound]
- Competition of LAT9991F-PAL binding by excess competitor (A549 cells; SiLANCL1 A549 cells): strongly competed off
- Competition of LAT9991F-PAL binding by excess competitor (NCI-H358 cells; SiLANCL1 NCI-H358 cells): strongly competed off

Compound: N[C@@H](CCC(=O)N[C@@H](CS)C(=O)NCC(=O)O)C(=O)O [glutathione, reference compound]
- Competition of LAT9991F-PAL binding by excess competitor (A549 cells; SiLANCL1 A549 cells): partially competed off
- Competition of LAT9991F-PAL binding by excess competitor (NCI-H358 cells; SiLANCL1 NCI-H358 cells): partially competed off

- Inhibition of LAT9991-PAL binding to recombinant LANCL1 by excess competitor (human recombinant LANCL1): inhibited
Compound: CRIIHNNNC [LAT7771]
- Competition of LAT9991F-PAL binding by excess competitor (A549 cells; SiLANCL1 A549 cells): partially competed off
- Competition of LAT9991F-PAL binding by excess competitor (NCI-H358 cells; SiLANCL1 NCI-H358 cells): partially competed off

Compound: LAT9991F-PAL: A photoactivatable analog of LAT8881 (LAT9991F (SEQ ID NO:13)-PAL) (CRSVEGSCGF; disulfide 1-8 (inferred); also: PAL cross-linking group, site not given here)
- Co-localization of LANCL1 and probe binding (A549 cells; A549 cells, confocal microscopy, probe 2.5 μM): co-localization
- Co-localization of LANCL1 and probe after siRNA knockdown of LANCL1 (A549 cells; SiLANCL1 A549 cells): lost
- Level of probe binding in siLANCL1 cells following induced oxidative stress (A549 cells; siLANCL1 A549 cells, H2O2 25 μM 2 hours or Taxol 1 μM 3 hours, vs SiControl): less intense as compared to control cells
- Co-localization of LANCL1 and probe binding (NCI-H358 cells; NCI-H358 cells, confocal microscopy, probe 2.5 μM): co-localization
- Co-localization of LANCL1 and probe after siRNA knockdown of LANCL1 (NCI-H358 cells; SiLANCL1 NCI-H358 cells): lost
- Level of probe binding in siLANCL1 cells following stress (NCI-H358 cells; siLANCL1 NCI-H358 cells, vs control cells): less intense as compared to control cells

- Binding of PAL probe to recombinant LANCL1 (human recombinant LANCL1; in-gel fluorescence after UV (365 nm) cross-linking): bound to recombinant LANCL1
Compound: LAT9993S-PAL: LAT9993S (SEQ ID NO:44) derivatized with the PAL photo-activatable cross-linking group (SCRSRPVESSCS; disulfide 2-11 (inferred); also: ['PAL photo-activatable cross-linking group, structure and site not given here'])
- Cross-linking of PAL probe to tissue homogenates of nerve from neuropathic animals [1]: shown to cross-link
- Molecular weight ranges of targets stained after gel separation ([1]; PAL probe cross-linked to nerve homogenates): ˜12-15 kD, ˜37 kD and ˜50 kD

- Inhibition of LAT9991-PAL binding to recombinant LANCL1 by excess competitor (human recombinant LANCL1): inhibited
Compound: SCRSRPVESSCS [LAT9993S]
- Competition of LAT9991F-PAL binding by excess competitor (A549 cells; SiLANCL1 A549 cells): partially competed off
- Competition of LAT9991F-PAL binding by excess competitor (NCI-H358 cells; SiLANCL1 NCI-H358 cells): partially competed off
